{
  "source": "patent US9521846B2",
  "about": "“Template-fixed peptidomimetics with antimicrobial activity” (priority 2006, dated 2016)",
  "key": {"P. aeruginosa ATCC 27853": {"tested_on": "P. aeruginosa ATCC 27853", "assay_type": "cell-based, Pseudomonas aeruginosa", "conditions": "ATCC 27853", "how_it_was_run": "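Bacteria were diluted in MH broth containing 0.02% BSA to roughly 10^6 CFU/ml, checked against a 0.5 McFarland standard. This inoculum was then added in equal volume to serially two-fold diluted peptide, following the NCCLS microdilution protocol with slight modifications.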"}, "HELA cells (Acc57)": {"tested_on": "HELA cells (Acc57)", "test": "Cytotoxicity assay, MTT reduction (LC 50, GI 50)", "assay_type": "cell-based", "how_it_was_run": "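Read-out was MTT reduction (A595) after 48 h peptide exposure (12.5–50 μM, triplicates) of HeLa cells plated at 7.0×10^3/well and precultured 24 h. Growth % was normalised to a time-zero reading. Linear trend interpolation gave the concentration at −50% growth (LC50) and at 50% growth (GI50).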"}, "[1]": {"test": "Plasma stability, rat plasma", "assay_type": "in vitro ADME"}, "[2]": {"tested_on": "Pseudomonas aeruginosa (ATCC 27853)", "test": "In vivo septicemia assay", "parameters": "species or system CD-1 mice", "conditions": "groups of 6 mice", "method": "Groups of 6 CD-1 (Crl.) derived male mice weighing 24±2 g were used. The mice were each inoculated intravenously (IV) with an LD90-100 of Pseudomonas aeruginosa (ATCC 27853) (9×10^6 CFU/0.5 ml/mouse) in brain heart infusion broth without 5% mucin. Compound at doses of 5, 2.5, 1, 0.5, 0.25 and 0.1 mg/kg, vehicle (0.9% NaCl, 10 ml/kg) was administered subcutaneously (SC) to test animals at 1 hour after bacterial inoculation. Also, an additional group was treated twice with compound at a dose of 5 mg/kg at 1 and 6 hours after bacterial inoculation. Mortality was recorded once daily for 7 days following the bacterial inoculation and an increase of survival of the animals by 50 percent or more (^3 50%) after the bacterial inoculation, relative to vehicle control, indicates significant antimicrobial effect. The MED (ED50) was determined by nonlinear regression using Graph-Pad Prism (Graph Pad Software, USA).\nSepticaemia experiment in mice: LD90-100 of Pseudomonas aeruginosa (ATCC 27853) (9×10^6 CFU/0.5 ml/mouse IV and after 1 h Ex. 1 s.c.\nSepticaemia experiment in mice: LD90-100 of Pseudomonas aeruginosa (ATCC 27853) (9×10^6 CFU/0.5 ml/mouse IV), and after 1 and 5 h Ex. 40 s.c.\nSepticaemia experiment in mice: LD90-100 of Pseudomonas aeruginosa (ATCC 27853) (9×10^6 CFU/0.5 ml/mouse IV), and after 1 and 5 h Ex. 50 s.c."}, "[3]": {"conditions": "0.1 mg/kg, 1 h after inoculation"}, "[4]": {"conditions": "0.25 mg/kg, 1 h after inoculation"}, "[5]": {"conditions": "0.5 mg/kg, 1 h after inoculation"}, "[6]": {"conditions": "2.5 mg/kg, 1 h after inoculation"}},
  "note": "Non-standard residues stand in square brackets, D forms with d. Residues, ends and D or L forms follow the SMILES beside them. Dab = NCC[C@H](N)C(=O)O",
  "data": [
    {"smiles": "CC[C@H](C)[C@@H]1NC(=O)[C@H](Cc2c[nH]c3ccccc23)NC(=O)[C@H]([C@@H](C)O)NC(=O)[C@@H]2CCCN2C(=O)[C@H]2CCCN2C(=O)[C@H](CCN)NC(=O)[C@H](C)NC(=O)[C@H](CCN)NC(=O)[C@H](CCN)NC(=O)[C@H](Cc2c[nH]c3ccccc23)NC(=O)[C@H](CCN)NC(=O)[C@H](CCN)NC(=O)[C@H](CCCCN)NC(=O)[C@H](CCN)NC1=O", "note": "[Example 1] (cyclo(TWI[Dab]K[Dab][Dab]W[Dab][Dab]A[Dab][dP]P))", "values": [
      {"measurement": "MIC P. aeruginosa ATCC 27853", "setting": "P. aeruginosa ATCC 27853", "result": 0.03, "unit": "µg/mL"},
      {"measurement": "Cytotoxicity GI50 Hela cells", "setting": "HELA cells (Acc57)", "result": 30, "unit": "µM"},
      {"measurement": "Stability rat Plasma t1/2", "setting": "[1]", "result": 300, "unit": "min"},
      {"measurement": "Dead", "setting": "[2]; [3]", "result": 5},
      {"measurement": "Survivors", "setting": "[2]; [3]", "result": 1},
      {"measurement": "Dead", "setting": "[2]; [4]", "result": 5},
      {"measurement": "Survivors", "setting": "[2]; [4]", "result": 1},
      {"measurement": "Dead", "setting": "[2]; [5]", "result": 2},
      {"measurement": "Survivors", "setting": "[2]; [5]", "result": 4},
      {"measurement": "Dead", "setting": "[2]; 1 mg/kg, 1 h after inoculation", "result": 1},
      {"measurement": "Survivors", "setting": "[2]; 1 mg/kg, 1 h after inoculation", "result": 5},
      {"measurement": "Dead", "setting": "[2]; [6]", "result": 0},
      {"measurement": "Survivors", "setting": "[2]; [6]", "result": 6},
      {"measurement": "Dead", "setting": "[2]; 5 mg/kg, 1 h after inoculation", "result": 0},
      {"measurement": "Survivors", "setting": "[2]; 5 mg/kg, 1 h after inoculation", "result": 6},
      {"measurement": "Dead", "setting": "[2]; 10 (2 × 5) mg/kg, 7 days", "result": 0},
      {"measurement": "Survivors", "setting": "[2]; 10 (2 × 5) mg/kg, 7 days", "result": 6}
    ]}
  ]
}
